Measured values published in publication PMC9090415, “Discovery of small molecule inhibitors of Plasmodium falciparum apicoplast DNA polymerase” (Journal of Enzyme Inhibition and Medicinal Chemistry, 2022).

Target: P. falciparum apicoplast DNA polymerase (Pf-apPOL) (Plasmodium falciparum, UniProt Q8ILY1)
Experiment: Fluorescence-based high-throughput DNA polymerase assay (molecular beacon), primary screen and dose-response;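 on % inhibition ApPOL 90': test concentration in µM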;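 on % inhibition apPOL 180': test concentration in µM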
Type: biochemical
Method in brief: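 Single-point screening used 10 µM compound with 20 nM polymerase, 20 nM hairpin substrate and 6 µM dNTPs for 90 min at 25 °C. Confirmatory titrations (2.5–80 µM) followed fluorescence at three times, and IC50 was derived from a fit including a cooperativity term n.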

[1] = primary screen value of the 186 hits; unit not given; 90 min, 10 µM
[2] = supplemental file 2, sheet IC50 nontoxic compounds; Pf-apPOL

Sequence of P. falciparum apicoplast DNA polymerase (Pf-apPOL) (Q8ILY1 entry or part of it): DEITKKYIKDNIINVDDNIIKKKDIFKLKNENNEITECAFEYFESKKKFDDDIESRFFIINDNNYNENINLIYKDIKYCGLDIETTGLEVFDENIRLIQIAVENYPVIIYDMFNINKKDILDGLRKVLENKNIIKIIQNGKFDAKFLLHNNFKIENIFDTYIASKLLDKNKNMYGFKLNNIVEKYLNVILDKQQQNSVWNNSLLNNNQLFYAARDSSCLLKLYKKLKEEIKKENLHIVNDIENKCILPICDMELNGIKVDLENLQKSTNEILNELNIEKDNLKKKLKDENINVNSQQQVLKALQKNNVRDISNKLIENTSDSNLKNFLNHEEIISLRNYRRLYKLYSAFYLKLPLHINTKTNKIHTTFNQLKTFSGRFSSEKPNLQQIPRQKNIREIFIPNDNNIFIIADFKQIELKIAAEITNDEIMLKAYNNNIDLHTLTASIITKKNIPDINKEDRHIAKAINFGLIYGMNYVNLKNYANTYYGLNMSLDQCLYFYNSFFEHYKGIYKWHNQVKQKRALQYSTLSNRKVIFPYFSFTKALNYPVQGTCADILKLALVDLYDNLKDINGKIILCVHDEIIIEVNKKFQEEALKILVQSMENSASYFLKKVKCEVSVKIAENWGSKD

SMILES: O=C1Nc2ccc(I)cc2C1=Cc1cc(Br)c(O)c(Br)c1 [Molecule 27, Ic1ccc2c(c1)C(=Cc1cc(Br)c(c(c1)Br)O)C(=O)N2]
- DNA Pol ('DNA Pol' of the 186 hits list (screen value); 90 min, 10 µM): 52
- % inhibition Apo pol 10' (DRC-1; 10'; conc 2.5): -2.766%
- % inhibition Apo pol 10' (DRC-1; 10'; conc 5): 14.7903%
- % inhibition Apo pol 10' (DRC-1; 10'; conc 10): 55.8319%
- % inhibition Apo pol 10' (DRC-1; 10'; conc 20): 68.6495%
- % inhibition Apo pol 10' (DRC-1; 10'; conc 40): 74.9605%
- % inhibition Apo pol 10' (DRC-1; 10'; conc 80): 94.5024%
- % inhibition Apol 90' (DRC-1; 90'; conc 2.5): -5.207%
- % inhibition Apol 90' (DRC-1; 90'; conc 5): 5.358%
- % inhibition Apol 90' (DRC-1; 90'; conc 10): 51.0216%
- % inhibition Apol 90' (DRC-1; 90'; conc 20): 63.6894%
- % inhibition Apol 90' (DRC-1; 90'; conc 40): 72.1753%
- % inhibition Apol 90' (DRC-1; 90'; conc 80): 93.708%
- % inhibition apPOL 180' (DRC-1; 180'; conc 2.5): -6.922%
- % inhibition apPOL 180' (DRC-1; 180'; conc 5): 0.7186%
- % inhibition apPOL 180' (DRC-1; 180'; conc 10): 40.1564%
- % inhibition apPOL 180' (DRC-1; 180'; conc 20): 53.0871%
- % inhibition apPOL 180' (DRC-1; 180'; conc 40): 65.7742%
- % inhibition apPOL 180' (DRC-1; 180'; conc 80): 93.2975%
- % inhibition Apo pol 5' (DRC-2; 5'; conc 2.5): -1.67%
- % inhibition Apo pol 5' (DRC-2; 5'; conc 5): 2.85%
- % inhibition Apo pol 5' (DRC-2; 5'; conc 10): 38%
- % inhibition Apo pol 5' (DRC-2; 5'; conc 20): 54%
- % inhibition Apo pol 5' (DRC-2; 5'; conc 40): 54%
- % inhibition Apo pol 5' (DRC-2; 5'; conc 80): 54%
- % inhibition Apo pol 5' (DRC-2; 5'; concentration 20): 54%
- % inhibition Apo pol 5' (DRC-2; 5'; concentration 40): 54%
- % inhibition Apo pol 5' (DRC-2; 5'; concentration 80): 54%
- % inhibition Apol 40' (DRC-2; 40'; conc 2.5): 0.385%
- % inhibition Apol 40' (DRC-2; 40'; conc 5): 11%
- % inhibition Apol 40' (DRC-2; 40'; conc 10): 48%
- % inhibition Apol 40' (DRC-2; 40'; conc 20): 68%
- % inhibition Apol 40' (DRC-2; 40'; conc 40): 71%
- % inhibition Apol 40' (DRC-2; 40'; conc 80): 72%
- % inhibition Apol 40' (DRC-2; 40'; concentration 5): 11%
- % inhibition Apol 40' (DRC-2; 40'; concentration 10): 48%
- % inhibition Apol 40' (DRC-2; 40'; concentration 80): 72%
- % inhibition ApPOL 90' (DRC-2; 90'; conc 2.5): 2.27%
- % inhibition ApPOL 90' (DRC-2; 90'; conc 5): 11%
- % inhibition ApPOL 90' (DRC-2; 90'; conc 10): 48%
- % inhibition ApPOL 90' (DRC-2; 90'; conc 20): 70%
- % inhibition ApPOL 90' (DRC-2; 90'; conc 40): 74%
- % inhibition ApPOL 90' (DRC-2; 90'; conc 80): 76%
- % inhibition ApPOL 90' (DRC-2; 90'; concentration 5): 11%
- % inhibition ApPOL 90' (DRC-2; 90'; concentration 10): 48%
- % inhibition ApPOL 90' (DRC-2; 90'; concentration 80): 76%
- % inhibition apPOL 180' (DRC-2; 180'; conc 2.5): 0.56%
- % inhibition apPOL 180' (DRC-2; 180'; conc 5): 6%
- % inhibition apPOL 180' (DRC-2; 180'; conc 10): 40%
- % inhibition apPOL 180' (DRC-2; 180'; conc 20): 67%
- % inhibition apPOL 180' (DRC-2; 180'; conc 40): 72%
- % inhibition apPOL 180' (DRC-2; 180'; conc 80): 76%
- % inhibition apPOL 180' (DRC-2; 180'; concentration 40): 72%
- % inhibition apPOL 180' (DRC-2; 180'; concentration 80): 76%
- DNA Pol (primary screen value, "DNA Pol"; 90 min, 10 µM): 52

SMILES: Nc1ncnc(NC2CCCCC2)c1[N+](=O)[O-] [KU0193018]
- % inhibition Apo pol 10' (DRC-1; concentration 2.5; 10'): -4.033%
- % inhibition Apol 90' (DRC-1; concentration 2.5; 90'): 1.71%
- % inhibition apPOL 180' (DRC-1; concentration 2.5; 180'): 7.961%
- % inhibition Apo pol 10' (DRC-1; concentration 5; 10'): -4.7638%
- % inhibition Apol 90' (DRC-1; concentration 5; 90'): 3.18%
- % inhibition apPOL 180' (DRC-1; concentration 5; 180'): 11.4393%
- % inhibition Apo pol 10' (DRC-1; concentration 10; 10'): 7.571%
- % inhibition Apol 90' (DRC-1; concentration 10; 90'): 18.3925%
- % inhibition apPOL 180' (DRC-1; concentration 10; 180'): 32.1574%
- % inhibition Apo pol 10' (DRC-1; concentration 20; 10'): 20.9545%
- % inhibition Apol 90' (DRC-1; concentration 20; 90'): 38.4286%
- % inhibition apPOL 180' (DRC-1; concentration 20; 180'): 56.6751%
- % inhibition Apo pol 10' (DRC-1; concentration 40; 10'): 53.9116%
- % inhibition Apol 90' (DRC-1; concentration 40; 90'): 70.3163%
- % inhibition apPOL 180' (DRC-1; concentration 40; 180'): 83.6838%
- % inhibition Apo pol 10' (DRC-1; concentration 80 (unit not given); 10'): 70.2616%
- % inhibition Apol 90' (DRC-1; concentration 80; 90'): 82.4548%
- % inhibition apPOL 180' (DRC-1; concentration 80; 180'): 91.4179%
- % inhibition Apo pol 5' (DRC-2; concentration 2.5; 5'): -2.47%
- % inhibition Apol 40' (DRC-2; concentration 2.5; 40'): -1.57%
- % inhibition ApPOL 90' (DRC-2; concentration 2.5; 90'): -2.42%
- % inhibition apPOL 180' (DRC-2; concentration 2.5; 180'): -6.58%
- % inhibition Apo pol 5' (DRC-2; concentration 5; 5'): 4%
- % inhibition Apol 40' (DRC-2; concentration 5; 40'): 3.32%
- % inhibition ApPOL 90' (DRC-2; concentration 5; 90'): 2.51%
- % inhibition apPOL 180' (DRC-2; concentration 5; 180'): -3.38%
- % inhibition Apo pol 5' (DRC-2; concentration 10; 5'): 20%
- % inhibition Apol 40' (DRC-2; concentration 10; 40'): 19%
- % inhibition ApPOL 90' (DRC-2; concentration 10; 90'): 15%
- % inhibition apPOL 180' (DRC-2; concentration 10; 180'): 6%
- % inhibition Apo pol 5' (DRC-2; concentration 20; 5'): 37%
- % inhibition Apol 40' (DRC-2; concentration 20; 40'): 42%
- % inhibition ApPOL 90' (DRC-2; concentration 20; 90'): 38%
- % inhibition apPOL 180' (DRC-2; concentration 20; 180'): 26%
- % inhibition Apo pol 5' (DRC-2; concentration 40; 5'): 50%
- % inhibition Apol 40' (DRC-2; concentration 40; 40'): 64%
- % inhibition ApPOL 90' (DRC-2; concentration 40; 90'): 63%
- % inhibition apPOL 180' (DRC-2; concentration 40; 180'): 55%
- % inhibition Apo pol 5' (DRC-2; concentration 80; 5'): 52%
- % inhibition Apol 40' (DRC-2; concentration 80; 40'): 71%
- % inhibition ApPOL 90' (DRC-2; concentration 80; 90'): 72%
- % inhibition apPOL 180' (DRC-2; concentration 80; 180'): 69%
- DNA Pol [1]: 25
- DNA Pol (primary screen value; head prints only 'DNA Pol'; 90 min, 10 µM): 25

SMILES: COc1ccc(-c2cc3nc4c(c(=O)n3[nH]2)CCN(C(=O)CCc2ccccc2)C4)cc1 [Molecule 17]
- IC50 [2]: 7.1 µM

SMILES: Cn1nc(C(=O)N2CCc3c(nc4cc(-c5ccccc5)[nH]n4c3=O)C2)c2ccccc21 [Molecule 18]
- IC50 [2]: 6.38 µM

SMILES: O=C(Nc1cccc(Cl)c1)Nc1nnc(-c2ccncc2)s1 [KU0022348]
- % inhibition Apo pol 10' (DRC-1; 10'; concentration 2.5): 12.66%
- % inhibition Apo pol 10' (DRC-1; 10'; concentration 5): -6.2957%
- % inhibition Apo pol 10' (DRC-1; 10'; concentration 10): 19.819%
- % inhibition Apo pol 10' (DRC-1; 10'; concentration 20): 75.3838%
- % inhibition Apo pol 10' (DRC-1; 10'; concentration 40): 88.0392%
- % inhibition Apo pol 10' (DRC-1; 10'; concentration 80): 86.8157%
- % inhibition Apol 90' (DRC-1; 90'; concentration 2.5): 6.139%
- % inhibition Apol 90' (DRC-1; 90'; concentration 5): -8.679%
- % inhibition Apol 90' (DRC-1; 90'; concentration 10): 12.9186%
- % inhibition Apol 90' (DRC-1; 90'; concentration 20): 70.4338%
- % inhibition Apol 90' (DRC-1; 90'; concentration 40): 84.2961%
- % inhibition Apol 90' (DRC-1; 90'; concentration 80): 86.1912%
- % inhibition apPOL 180' (DRC-1; 180'; concentration 2.5): 0.3318%
- % inhibition apPOL 180' (DRC-1; 180'; concentration 5): -11.6465%
- % inhibition apPOL 180' (DRC-1; 180'; concentration 10): 5.454%
- % inhibition apPOL 180' (DRC-1; 180'; concentration 20): 60.8254%
- % inhibition apPOL 180' (DRC-1; 180'; concentration 40): 80.4807%
- % inhibition apPOL 180' (DRC-1; 180'; concentration 80): 84.4697%
- % inhibition Apo pol 5' (DRC-2; 5'; concentration 2.5): 16%
- % inhibition Apo pol 5' (DRC-2; 5'; concentration 5): 32%
- % inhibition Apo pol 5' (DRC-2; 5'; concentration 10): 46%
- % inhibition Apo pol 5' (DRC-2; 5'; concentration 20): 47%
- % inhibition Apo pol 5' (DRC-2; 5'; concentration 40): 48%
- % inhibition Apo pol 5' (DRC-2; 5'; concentration 80): 40%
- % inhibition Apol 40' (DRC-2; 40'; concentration 2.5): 18%
- % inhibition Apol 40' (DRC-2; 40'; concentration 5): 42%
- % inhibition Apol 40' (DRC-2; 40'; concentration 10): 64%
- % inhibition Apol 40' (DRC-2; 40'; concentration 20): 66%
- % inhibition Apol 40' (DRC-2; 40'; concentration 40): 71%
- % inhibition Apol 40' (DRC-2; 40'; concentration 80): 57%
- % inhibition ApPOL 90' (DRC-2; 90'; concentration 2.5): 16%
- % inhibition ApPOL 90' (DRC-2; 90'; concentration 5): 41%
- % inhibition ApPOL 90' (DRC-2; 90'; concentration 10): 65%
- % inhibition ApPOL 90' (DRC-2; 90'; concentration 20): 67%
- % inhibition ApPOL 90' (DRC-2; 90'; concentration 40): 73%
- % inhibition ApPOL 90' (DRC-2; 90'; concentration 80): 64%
- % inhibition apPOL 180' (DRC-2; 180'; concentration 2.5): 6%
- % inhibition apPOL 180' (DRC-2; 180'; concentration 5): 30%
- % inhibition apPOL 180' (DRC-2; 180'; concentration 10): 58%
- % inhibition apPOL 180' (DRC-2; 180'; concentration 20): 60%
- % inhibition apPOL 180' (DRC-2; 180'; concentration 40): 70%
- % inhibition apPOL 180' (DRC-2; 180'; concentration 80): 65%
- % inhibition Apo pol 5' (conc. 2.5; 5'; DRC-2): 16%
- % inhibition ApPOL 90' (conc. 2.5; 90'; DRC-2): 16%
- % inhibition Apol 40' (conc. 10; 40'; DRC-2): 64%
- % inhibition ApPOL 90' (conc. 10; 90'; DRC-2): 65%
- % inhibition ApPOL 90' (conc. 80; 90'; DRC-2): 64%
- % inhibition apPOL 180' (conc. 80; 180'; DRC-2): 65%
- DNA Pol (primary screen value by plate and well; 90 min, 10 µM): 61
- DNA Pol [1]: 61

SMILES: Cc1ccc(C)c(CSc2nc(C3CCCCC3)c(C#N)c(=O)[nH]2)c1 [Molecule 6]
- IC50 [2]: 6.42 µM
